The target in assay [1] is T1, Aβ oligomers (Homo sapiens, UniProt P05067).
T1 construct: a depsipeptide derivative of Aβ(1–42) was utilized; made in house; host or cells: chemical peptide synthesis (no expression host)
Kind of assay: Isothermal titration calorimetry (ITC) with Aβ oligomers. It counts as binding. The procedure:
(§1) Binding of 7 to the Aβ oligomers was monitored by means of isothermal titration calorimetry (ITC). […] The titrations were run at 288 K in order to improve the signal to noise ratio, and just above the precipitation limit as the ITC method is sensitive to the thermal noise caused by the stirring of large particles. […] These values strongly supported tight binding between the Aβ oligomer species and 7.
Isothermal titrations were performed with a Microcal VP-ITC microcalorimeter. The binding experiments were performed in PBS pH 7.4. The buffer solution was degassed. The concentrations of the ligands and Aβ were corrected for the material content. In individual titrations, 10 μL of ligand was injected from the computer-controlled 300-μL microsyringe at intervals of 300 s into the Aβ oligomer solution dissolved in the same buffer as the ligand. The microsyringe stirring was set to 295 rpm. All measurements were made at 288 K. The Aβ concentrations in the cell were either 72 μM or 36 μM, and the concentrations of 7 were 175 μM and 222 μM respectively. The total ligand concentration was set in the syringe so that the titration stopped when the precipitation became excessive. Control experiments were performed by injecting the ligand into a cell containing buffer with no target, and the heats of dilution were subtracted from those measured in the presence of Aβ. Titrations were also performed with buffer in the syringe and Aβ oligomer sample in the cell to check for the heat response of Aβ dilution itself. The dilution heat of the Aβ oligomer samples was constant and negligible. Since the target is inherently inhomogeneous, and an a priori model of the binding events is not available,. the experimental data were fitted to the two independent site binding model by using a nonlinear least-squares procedure, with ΔHb, ΔHb', Ka, Ka' (association constants), N and N' (number of binding sites for monomer), as adjustable parameters. The exothermic peaks appearing after the fully precipitated phase was reached, were omitted from the regression.

In assay [2] the test system is LTP in mouse hippocampal slices impaired by Aβ(1–42) oligomers. Kind of assay: Ex vivo hippocampal slice LTP electrophysiology. It counts as cell-based. From the text:
We investigated whether 7 could protect against the synaptic plasticity damage caused by Aβ(1–42) oligomers by using a hippocampus slice LTP model. LTP, a correlate of learning and memory has been repeatedly shown to be impaired by Aβ(1–42) oligomers. As negative control, substance 11 was applied. The experimenters were blind to the compounds tested.
These observations indicate the significant protective effect of 7 (Figure 12D). To test the effects of valency, LTP experiments were repeated with 8 under the same conditions.
Via standard procedures, 350-µm-thick transverse hippocampal slices were prepared from the brain of 7-months-old mice (CD1, Animal Breeding Facility, University of Szeged) with a McIlwain tissue chopper (Campden Instruments, Loughborough, UK). Slices were incubated in standard artificial cerebrospinal fluid (ACSF) at ambient temperature for 60 min, during constant gassing with 95% O2–5% CO2. The ACSF contained (mM): NaCl, 130; KCl, 3.5; CaCl2, 2; MgCl2, 2; NaH2PO4, 0.96; NaHCO3, 24; and D-glucose, 10 (pH 7.4). Individual slices were transferred to a 3D-MEA chip with 60 tip-shaped and 60-μm-high electrodes spaced at 100 μm (Ayanda Biosystems, S.A., Lausanne, Switzerland). The slice was continuously perfused with oxygenated ACSF (1.5 ml min^−1 at 34 °C) containing 720 nM Aβ(1–42) oligomers and/or 950 nM ligand throughout the recording session. Data were recorded with a standard, commercially available MEA setup (Multi Channel Systems MCS GmbH, Reutlingen, Germany). The Schaffer-collateral was stimulated by injecting a biphasic current waveform (−100/+100 μs) through one selected electrode at 0.033 Hz. Care was taken to choose the stimulating electrode in the same region from one slice to the other. The peak-to-peak amplitudes of fEPSPs at the stratum pyramidale and stratum radiatum of CA1 were analyzed. After a 30-min incubation period, the threshold and the maximum of stimulation intensity for evoke responses was determined. To evoke responses, 30% of the maximal stimulation intensity was used. LTP was induced by applying a theta-burst stimulation (TBS) pattern at the maximal stimulation intensity. The TBS comprised four trains administered at 20-s intervals with 10 bursts given at 5 Hz per train and 4 pulses at 100 Hz per burst. Statistical analysis was carried out by using two-tailed Student's t-test. For representative raw data see Figure S12.

Assay [3] has as its target T1, Aβ oligomers. Kind of assay: Ligand-induced precipitation during ITC titration, followed by DLS. To be noted: 72 μM Aβ oligomer. The procedure:
as §1
For DLS measurements, 500 µL Aβ(1–42) solution (c = 72 µM) was prepared in PBS, and placed in a low–volume sizing cell. Size distribution was measured at 25°C on a Malvern Zetasizer Nano ZS Instrument (Malvern Instruments Ltd. Worcestershire, UK) equipped with a He-Ne laser (633 nm) by means of Non-Invasive Back Scatter (NIBS®) technology, which involves detection of the scattered light at an angle of 173°. A titration routine was formulated consisting of 12 independent measurements with a 2-min delay after each. The calculated amount of 7 solution was added to the Aβ after every second measurement. During the titration, the molar quantity of 7 varied between 0–35 µM. For a single measurement, the correlation function and distribution of the apparent hydrodynamic diameter (dh) over the scattered intensity of the particles were determined on the basis of 14 scans. […]
On the technique in general: In ITC the heat of successive injections is recorded.

[4] abbreviates: 72 μM Aβ oligomer in cell, 288 K, PBS pH 7.4, read-out: KD (ITC; first binding step for 7, single stage for the others).
The mark [5] stands for this setting: read-out: KD (ITC), given as bound, 72 μM Aβ oligomer, 288 K.
Setting [6] is: read-out: KD (ITC; first binding step for 7, single stage for the others), 72 μM Aβ oligomer in cell, 288 K, PBS pH 7.4.

Entries after “also recorded” stand apart in the source; their conditions may differ. Like-named read-outs stand apart in the source and are kept apart here. Ends that are not written are not given here. A value given as a limit tells only on which side of the number the result lay.

Consider “11: 6 coupled to the G0-PAMAM template; negative control with Gly7 tentacles (GGGGGGGC-NH2; not fully specified (residue 8); also: coupled to tetravalent G0-PAMAM template) [Compound 11]”, for which the “Tight binding to the Aβ oligomer species in ITC (in words)” value (“Tight binding to the Aβ oligomer species” for short) with Aβ oligomers [1] (72 μM Aβ oligomer) is given as “the curve fitting did not converge; also recorded: did not reveal any tight binding”. Also, the “LTP (potentiation) with Aβ(1–42) oligomers and ligand together” value in assay [2] (720 nM Aβ(1–42) oligomers + 950 nM ligand, 180 min after LTP induction, mean ±SEM) was determined as 130±3%. The “LTP (potentiation) with ligand alone” value in assay [2] (950 nM ligand, no Aβ oligomers, mean ±SEM) is given as 200±14%.

With `N=C(N)NCCC[C@@H](CC(=O)N[C@H]1CCCC[C@@H]1C(=O)N[C@H]1CCCC[C@@H]1C(=O)N[C@@H](CC(=O)O)CC(=O)N[C@H]1CCCC[C@@H]1C(N)=O)NC(=O)[C@H]1CCCC[C@@H]1N` [Compound 1], the Kd at Aβ oligomers [1] (setting [4]) is 2380 ± 214 nM; at Aβ oligomers [1] (72 μM Aβ oligomer, 288 K, read-out: KD (ITC), given as bound), greater than 2000 nM.

Consider `N=C(N)NCCC[C@@H](CC(=O)N[C@H]1CCCC[C@@H]1C(=O)N[C@H]1CCCC[C@@H]1C(=O)N[C@@H](CC(=O)O)CC(=O)N[C@H]1CCCC[C@@H]1C(=O)NCC(=O)NCC(=O)N[C@@H](CSC1CC(=O)N(CCCCN2C(=O)CC(SC[C@H](NC(=O)CNC(=O)CNC(=O)[C@H]3CCCC[C@@H]3NC(=O)C[C@H](CC(=O)O)NC(=O)[C@H]3CCCC[C@@H]3NC(=O)[C@H]3CCCC[C@@H]3NC(=O)C[C@H](CCCNC(=N)N)NC(=O)[C@H]3CCCC[C@@H]3N)C(N)=O)C2=O)C1=O)C(N)=O)NC(=O)[C@H]1CCCC[C@@H]1N` (stereo partly drawn) [Compound 8], for which the Kd on Aβ oligomers [1] (setting [4]) is 721 ± 120 nM. Moreover, the “ΔHb (ITC; first binding step for 7, single stage for 8)” value at Aβ oligomers [1] (72 μM Aβ oligomer, 288 K) turned out to be 1.1 ± 0.12 kcal/mol. Moreover, the “Concentration-dependent precipitation of Aβ oligomers during titration (ITC/DLS)” value at Aβ oligomers [3] is recorded as “Neither 8 nor 1 led to concentration-dependent precipitation”. For the same compound, the “Rescue of LTP from toxic Aβ oligomers (in words)” value in assay [2] (720 nM Aβ(1–42) oligomers + 950 nM ligand) is on record as “No rescue from the toxic Aβ oligomers was observed”.

`NC(=O)[C@H](CSC1CC(=O)N(CCC(=O)NCCNC(=O)CCN(CCC(=O)NCCNC(=O)CCN2C(=O)CC(SC[C@H](NC(=O)CNC(=O)CNC(=O)[C@H]3CCCC[C@@H]3NC(=O)C[C@H](CO)NC(=O)[C@H]3CCCC[C@@H]3NC(=O)[C@H]3CCCC[C@@H]3NC(=O)C[C@H](CO)NC(=O)[C@H]3CCCC[C@@H]3N)C(N)=O)C2=O)CCN(CCC(=O)NCCNC(=O)CCN2C(=O)CC(SC[C@H](NC(=O)CNC(=O)CNC(=O)[C@H]3CCCC[C@@H]3NC(=O)C[C@H](CO)NC(=O)[C@H]3CCCC[C@@H]3NC(=O)[C@H]3CCCC[C@@H]3NC(=O)C[C@H](CO)NC(=O)[C@H]3CCCC[C@@H]3N)C(N)=O)C2=O)CCC(=O)NCCNC(=O)CCN2C(=O)CC(SC[C@H](NC(=O)CNC(=O)CNC(=O)[C@H]3CCCC[C@@H]3NC(=O)C[C@H](CO)NC(=O)[C@H]3CCCC[C@@H]3NC(=O)[C@H]3CCCC[C@@H]3NC(=O)C[C@H](CO)NC(=O)[C@H]3CCCC[C@@H]3N)C(N)=O)C2=O)C1=O)NC(=O)CNC(=O)CNC(=O)[C@H]1CCCC[C@@H]1NC(=O)C[C@H](CO)NC(=O)[C@H]1CCCC[C@@H]1NC(=O)[C@H]1CCCC[C@@H]1NC(=O)C[C@H](CO)NC(=O)[C@H]1CCCC[C@@H]1N` (stereo partly drawn) [Compound 9]: on Aβ oligomers [1] (72 μM Aβ oligomer), the “Tight binding to the Aβ oligomer species” value is on record as “did not reveal any tight binding”. Moreover, on Aβ oligomers [1] (72 μM Aβ oligomer, 288 K), the “N (ITC stoichiometry, number of binding sites for monomer; first or single stage)” value is on record as 0.03. For the same compound, the results for the Kd at Aβ oligomers [1] (setting [5]) and at Aβ oligomers [1] (setting [6]) were greater than 2000 nM and 2240 ± 198 nM, respectively.

For the compound `N=C(N)NCCC[C@@H](CC(=O)N[C@H]1CCCC[C@@H]1C(=O)N[C@@H](CC(=O)O)CC(=O)N[C@H]1CCCC[C@@H]1C(=O)N[C@H]1CCCC[C@@H]1C(=O)NCC(=O)NCC(=O)N[C@@H](CSC1CC(=O)N(CCC(=O)NCCNC(=O)CCN(CCC(=O)NCCNC(=O)CCN2C(=O)CC(SC[C@H](NC(=O)CNC(=O)CNC(=O)[C@H]3CCCC[C@@H]3NC(=O)[C@H]3CCCC[C@@H]3NC(=O)C[C@H](CC(=O)O)NC(=O)[C@H]3CCCC[C@@H]3NC(=O)C[C@H](CCCNC(=N)N)NC(=O)[C@H]3CCCC[C@@H]3N)C(N)=O)C2=O)CCN(CCC(=O)NCCNC(=O)CCN2C(=O)CC(SC[C@H](NC(=O)CNC(=O)CNC(=O)[C@H]3CCCC[C@@H]3NC(=O)[C@H]3CCCC[C@@H]3NC(=O)C[C@H](CC(=O)O)NC(=O)[C@H]3CCCC[C@@H]3NC(=O)C[C@H](CCCNC(=N)N)NC(=O)[C@H]3CCCC[C@@H]3N)C(N)=O)C2=O)CCC(=O)NCCNC(=O)CCN2C(=O)CC(SC[C@H](NC(=O)CNC(=O)CNC(=O)[C@H]3CCCC[C@@H]3NC(=O)[C@H]3CCCC[C@@H]3NC(=O)C[C@H](CC(=O)O)NC(=O)[C@H]3CCCC[C@@H]3NC(=O)C[C@H](CCCNC(=N)N)NC(=O)[C@H]3CCCC[C@@H]3N)C(N)=O)C2=O)C1=O)C(N)=O)NC(=O)[C@H]1CCCC[C@@H]1N` (stereo partly drawn) [Compound 10], on Aβ oligomers [1] (72 μM Aβ oligomer), the “Tight binding to the Aβ oligomer species” value is “did not reveal any tight binding”. On Aβ oligomers [1] (72 μM Aβ oligomer, 288 K), the “N (ITC stoichiometry, number of binding sites for monomer; first or single stage)” value is on record as 0.10. The Kd at Aβ oligomers [1] (setting [5]) is greater than 2000 nM; at Aβ oligomers [1] (setting [6]), 2750 ± 301 nM.

Turning to “Aβ(1–42) oligomer: synaptotoxic Aβ(1–42) oligomers prepared from Ser26 depsipeptide iso-Aβ(1–42) at pH 7.4 [reference compound]”, in assay [2] (720 nM Aβ(1–42) oligomer, untreated slices 175±5%), the “LTP (potentiation) with Aβ(1–42) oligomer alone” value is reported as 128±5%.

In general, Kd refers to a measure of binding affinity in units of concentration.

(Values after PMC3408453, “A Foldamer-Dendrimer Conjugate Neutralizes Synaptotoxic β-Amyloid Oligomers” (PLoS ONE, 2012).)
